Results from US7357914B2, “Use of metal chelates in human or animal feeding” (Agristudio S.R.L., priority 2002, dated 2008).
Values joined by “and” are separate entries in the source; they are usually repeats but may differ in a detail not shown here. Identical values can stand only once.

Assays:
[1] = water solubility of the isolated iron (II) chelate; assay type: physicochemical; details: pale yellow powder
Source text: After filtration and washing the chelated product is then dried so as to reduce the amount of absorbed water.

[2] = feeding test in weaned pigs, zinc source in food (growth, zinc retention, tissue minerals); assay type: in vivo; details: for Daily increase / Final living weight: about 27 days; for Final net weight: body weight without content of the digestive tube; for Diet: food intake, 50 ppm zinc from the source; for Daily net increase: net weight
Method: Two test groups of pigs (Control and Test) of 35 days of age and weaned at 19 days, were administered a food differing only in the zinc source. […] The two groups of animals were balanced by nest, living weight and sex and were fed for 27 days. Other 4 animals were immediately sacrificed and a sampling was made of them according to the following procedure. The two groups of animals were weighed before starting the test and after 27 days. At the end of the test the pigs were sacrificed and stomach, intestine, left kidney and liver were removed from every pig. Stomach and intestine were emptied and weighed again so as to obtain the net weight of said organs. A sample of kidney, liver and brain was taken and frozen. Stomach, intestine, left kidney and liver were then put together with the remaining carcass and homogenized with a mixer. A sample was then taken from the mass thus obtained and frozen. The samples were then dehydrated with a dehydrating device and underwent chemical analysis. The level of zinc, copper and iron were determined on the lyophilized samples by atomic absorption spectroscopy. The body levels of zinc were referred to the product. On the basis of the body's “net” weight (i.e. without the content of the digestive tube) and of its content of zinc at test beginning and end it was possible to determine also daily zinc retention.

[3] = feeding test in female Charolaise calves, zinc source in diet (zootechnical performance); assay type: in vivo
Method: Living weight at test beginning and end, dead weight and slaughtering yield were determined for each animal.

[4] = pigs, 50 ppm zinc from the source in food
[5] = single calves 1-6 of each group, Table 5, listed as TEST
[6] = pigs, lyophilized samples, atomic absorption

Compound: CSCCC(O)C(=O)[O-].CSCCC(O)C(=O)[O-].O.O.[Fe+2] (centres unmarked) [(CH3SCH2CH2CH(OH)COO)2Fe.2H2O]
- water solubility [1]: little water soluble

Compound: CSCCC(O)C(=O)[O-].CSCCC(O)C(=O)[O-].O.O.[Zn+2] (centres unmarked) [zinc chelate, (CH3SCH2CH2CH(OH)COO)2Zn.2H2O]
- Brain Copper content ([2]; pig, in vivo): 28.1
- Brain Iron content ([2]; pig, in vivo): 100.9
- Brain Zinc content ([2]; pig, in vivo): 53.9
- Daily Zn retention ([2]; pig, in vivo): 5.40 mg
- Kidney Copper content ([2]; pig, in vivo): 55.0
- Kidney Iron content ([2]; pig, in vivo): 244
- Kidney Zinc content ([2]; pig, in vivo): 97.5
- Liver Copper content ([2]; pig, in vivo): 63.6 mg/kg
- Liver Iron content ([2]; pig, in vivo): 240
- Liver Zinc content ([2]; pig, in vivo): 292 mg/kg
- Conversion index [2, 4]: 1.68
- Daily increase [2, 4]: 327 g
- Final living weight [2, 4]: 16.14 kg
- Final net weight ([2]; pigs): 15.57 kg
- Diet ([2]; pigs): 544 g
- Daily net increase ([2]; pigs): 314 g
- Final weight ([3]; calves, 90 days, 700 mg zinc daily, group value, Table 4, in kg): 652.
- carcass weight ([3]; calves, 90 days, P<0.01): 377 kg
- Daily increase ([3]; calves, 90 days, group value, Table 4): 1,039.
- carcass weight ([3]; calves, 90 days, group value, Table 4, in kg): 377.
- Final weight ([3]; calves, 90 days, p<0.05): 652 kg
- daily weight increase ([3]; calves, 90 days, p<0.05): 1,039 g
- yield ([3]; calves, slaughtering yield, p<0.01): 57.83%
- Dead weight [3, 5]: 421 kg and 457 kg and 398 kg and 378 kg and 320 kg and 318 kg
- Final weight [3, 5]: 724.61 kg and 789.29 kg and 686.21 kg and 653.98 kg and 557.49 kg and 548.28 kg
- Total increase [3, 5]: 99.0 kg and 112.5 kg and 103.5 kg and 90.00 kg and 81.00 kg and 80.10 kg

Compound: O=S(=O)([O-])[O-].[Zn+2] [zinc sulfate, reference compound]
- Daily increase [2, 4]: 321 g
- Final living weight [2, 4]: 16.20 kg
- Final net weight ([2]; pigs): 15.76 kg
- Diet ([2]; pigs): 548 g
- Daily Zn retention ([2]; pigs, from net body weight and body zinc content at test beginning and end): 5.27 mg
- Brain Copper content [2, 6]: 23.3
- Brain Iron content [2, 6]: 80.6
- Brain Zinc content [2, 6]: 47.6
- Kidney Copper content [2, 6]: 40.2
- Kidney Iron content [2, 6]: 179
- Kidney Zinc content [2, 6]: 82.3
- Liver Copper content [2, 6]: 62.5 mg/kg
- Liver Zinc content [2, 6]: 300 mg/kg
- Daily net increase ([2]; pigs): 313 g
